Measurements: patent publication US11390621B2, “Chiral indole compounds and their use” (ARIAGEN, INC., priority 2019, dated 2022)

Assays:
Assay type in all cases: in vitro ADME
CYP3A4 = target: T1, CYP3A4 (Homo sapiens, UniProt P08684); assay: CYP profiling: human liver microsomes with CYP3A4 inhibitor ketoconazole; set-up: % Compound Metabolized at 30 min, CYP3A4 Inhibitor: concentration or dose not given beside the values; conditions: HLMs
T1 construct: from tissue; host or cells: human liver microsomes
Procedure: (§1) In order to investigate the contributions of CYP1A2 and CYP3A4 to the metabolism of the compounds of the present disclosure, human liver microsomes were incubated with the test compounds for 30 minutes in the presence of selective chemical inhibitors furafylline (1A2) and ketoconazole (3A4).

[1] = Hepatocyte intrinsic clearance assay (metabolic stability), rat hepatocytes; conditions: rat, cryopreserved hepatocytes, Rat Hepatocytes, 1 μM test compound
How it was run: (§2)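 Cryopreserved pooled hepatocytes (1×10^6 cells/mL final) incubated with 1 μM compound at 37 °C, 5% CO2; samples at 0–120 min quenched in acetonitrile, analysed by LC-MS in duplicate. t1/2 and CLint from ln(% remaining) vs time slope; CLH via well-stirred liver model (fu=1) and EH derived from it.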

rat hepatocytes = assay: as above; conditions: Rat Hepatocytes; well stirred liver model, fu=1
How it was run: as §2

CYP1A2 = target: T2, CYP1A2 (Homo sapiens, UniProt P05177); assay: CYP profiling: human liver microsomes with CYP1A2 inhibitor furafylline; set-up: % Compound Metabolized at 30 min, CYP1A2 Inhibitor: concentration or dose not given beside the values; conditions: HLMs
T2 construct: from tissue; host or cells: human liver microsomes
T2 sequence (P05177 1-516): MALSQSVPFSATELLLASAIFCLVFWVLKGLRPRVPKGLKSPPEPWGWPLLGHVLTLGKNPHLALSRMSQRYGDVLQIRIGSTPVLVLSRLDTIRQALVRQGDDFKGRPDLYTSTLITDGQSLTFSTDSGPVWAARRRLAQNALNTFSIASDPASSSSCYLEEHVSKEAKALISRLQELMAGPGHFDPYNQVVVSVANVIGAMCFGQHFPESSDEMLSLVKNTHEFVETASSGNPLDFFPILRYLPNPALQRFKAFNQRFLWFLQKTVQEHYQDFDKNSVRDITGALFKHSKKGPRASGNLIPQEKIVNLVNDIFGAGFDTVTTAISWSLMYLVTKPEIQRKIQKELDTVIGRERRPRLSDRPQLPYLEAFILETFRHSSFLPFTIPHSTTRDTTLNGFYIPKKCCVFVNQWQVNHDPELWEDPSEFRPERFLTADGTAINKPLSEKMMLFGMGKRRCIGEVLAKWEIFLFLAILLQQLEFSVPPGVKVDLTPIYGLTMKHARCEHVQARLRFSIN
Procedure: as §1

T1 sequence (P08684 whole entry): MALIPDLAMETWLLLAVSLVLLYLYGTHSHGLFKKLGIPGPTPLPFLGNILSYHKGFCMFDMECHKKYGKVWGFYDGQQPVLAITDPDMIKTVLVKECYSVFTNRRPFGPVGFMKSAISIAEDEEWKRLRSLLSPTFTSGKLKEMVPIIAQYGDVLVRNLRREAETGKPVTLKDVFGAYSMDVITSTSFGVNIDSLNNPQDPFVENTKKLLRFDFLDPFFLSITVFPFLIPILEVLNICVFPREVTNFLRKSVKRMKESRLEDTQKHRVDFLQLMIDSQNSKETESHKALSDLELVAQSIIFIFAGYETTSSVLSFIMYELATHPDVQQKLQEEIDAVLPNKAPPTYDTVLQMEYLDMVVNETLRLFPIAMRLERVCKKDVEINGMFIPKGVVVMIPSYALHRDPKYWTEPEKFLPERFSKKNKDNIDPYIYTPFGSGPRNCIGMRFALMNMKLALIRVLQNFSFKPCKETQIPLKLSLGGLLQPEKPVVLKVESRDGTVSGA

## N[C@@H](c1csc(C(=O)c2c[nH]c3ccccc23)n1)C(F)(F)F [ARI-229]
CYP3A4
  % Compound Metabolized at 30 min, CYP3A4 Inhibitor: 0%
CYP3A4; 30 min
  % Inhibition Relative to Negative Control, 3A4: None
[1]
  half-life at 1 μM: 1 h
  hepatocyte CLint at 1 μM: 11.7 µL/min/1e6 cells
Rat hepatocytes
  EH (hepatic extraction ratio): 43.9%
CYP1A2
  % Compound Metabolized at 30 min, CYP1A2 Inhibitor: 0%
CYP1A2; 30 min
  % Inhibition Relative to Negative Control, 1A2: None
